Experiments:
Experiment in all cases: relative viability (nuclei count vs DMSO), 5 days (fraction); higher = more cells survive
KN-93 + Dasatinib = compound: CN(C/C=C/C1=CC=C(C=C1)Cl)CC2=CC=CC=C2N(CCO)S(=O)(=O)C3=CC=C(C=C3)OC [KN-93] + Cc1nc(Nc2ncc(C(=O)Nc3c(C)cccc3Cl)s2)cc(N2CCN(CCO)CC2)n1 [Dasatinib] (partner 0.075 µM)
Summary of the method: (§1)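 Relative viability divides the nuclei count in treated wells by that in vehicle wells. Lung cancer cell lines were seeded in 1536-well plates, dosed by pin tool the next day, and fixed and stained after 5 days in one step with final 0.05% Triton X-100, 1% formaldehyde and 1 ug/ml Hoechst. Dosing was a single drug or a fixed anchor-drug dose plus five library-drug doses (not always all listed) in √10 steps, and values are medians of duplicate plates imaged at 4×.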

KN-93 + Trametinib = compound: CN(C/C=C/C1=CC=C(C=C1)Cl)CC2=CC=CC=C2N(CCO)S(=O)(=O)C3=CC=C(C=C3)OC [KN-93] + CC(=O)Nc1cccc(-n2c(=O)n(C3CC3)c(=O)c3c(Nc4ccc(I)cc4F)n(C)c(=O)c(C)c32)c1 [Trametinib] (partner 0.02 µM)
Summary of the method: as §1

KN-93 + Palbociclib = compound: CN(C/C=C/C1=CC=C(C=C1)Cl)CC2=CC=CC=C2N(CCO)S(=O)(=O)C3=CC=C(C=C3)OC [KN-93] + CC(=O)c1c(C)c2cnc(Nc3ccc(N4CCNCC4)cn3)nc2n(C2CCCC2)c1=O [Palbociclib] (partner 0.5 µM)
Summary of the method: as §1

KN-93 + Tozasertib = compound: CN(C/C=C/C1=CC=C(C=C1)Cl)CC2=CC=CC=C2N(CCO)S(=O)(=O)C3=CC=C(C=C3)OC [KN-93] + Cc1cc(Nc2cc(N3CCN(C)CC3)nc(Sc3ccc(NC(=O)C4CC4)cc3)n2)n[nH]1 [Tozasertib] (partner 0.1 µM)
Summary of the method: as §1

KN-93 + AZD7762 = compound: CN(C/C=C/C1=CC=C(C=C1)Cl)CC2=CC=CC=C2N(CCO)S(=O)(=O)C3=CC=C(C=C3)OC [KN-93] + NC(=O)Nc1cc(-c2cccc(F)c2)sc1C(=O)N[C@H]1CCCNC1 [AZD7762] (partner 0.2 µM)
Summary of the method: as §1

Row | Cell Line | relative viability (KN-93 + Dasatinib; first compound 0.08 µM) | relative viability (KN-93 + Dasatinib; first compound 0.253 µM) | relative viability (KN-93 + Dasatinib; first compound 2.53 µM) | relative viability (KN-93 + Dasatinib; first compound 8 µM) | relative viability (KN-93 + Trametinib; first compound 0.08 µM) | relative viability (KN-93 + Trametinib; first compound 0.253 µM) | relative viability (KN-93 + Trametinib; first compound 2.53 µM) | relative viability (KN-93 + Trametinib; first compound 8 µM) | relative viability (KN-93 + Palbociclib; first compound 0.08 µM) | relative viability (KN-93 + Palbociclib; first compound 0.253 µM) | relative viability (KN-93 + Palbociclib; first compound 2.53 µM) | relative viability (KN-93 + Palbociclib; first compound 8 µM) | relative viability (KN-93 + Tozasertib; first compound 0.08 µM) | relative viability (KN-93 + Tozasertib; first compound 0.253 µM) | relative viability (KN-93 + Tozasertib; first compound 2.53 µM) | relative viability (KN-93 + Tozasertib; first compound 8 µM) | relative viability (KN-93 + AZD7762; first compound 0.08 µM) | relative viability (KN-93 + AZD7762; first compound 0.253 µM) | relative viability (KN-93 + AZD7762; first compound 2.53 µM) | relative viability (KN-93 + AZD7762; first compound 8 µM)
1 | NCI-H1650 | 0.399 | 0.262 | 0.297 | 0.24 | 0.611 | 0.508 | 0.693 | 0.412 | 0.377 | 0.323 | 0.391 | 0.269 | 0.39 | 0.339 | 0.382 | 0.309 | – | – | – | –
2 | HCC-44 | – | – | – | – | 1.14 | 0.954 | 1.04 | 0.83 | 1.04 | 0.878 | 0.979 | 0.79 | 0.912 | 0.809 | 0.863 | 0.526 | 1.02 | 0.904 | 1.04 | 0.944
3 | NCI-H1563 | 0.473 | 0.415 | 0.471 | 0.377 | – | – | – | – | – | – | – | – | – | – | – | – | – | – | – | –
4 | COR-L23 | 0.505 | 0.45 | 0.595 | 0.354 | 0.554 | 0.625 | 0.722 | 0.395 | 0.272 | 0.289 | 0.303 | 0.24 | 0.185 | 0.205 | 0.177 | 0.156 | – | – | – | –
5 | SW 1573 | 0.551 | 0.492 | 0.474 | 0.236 | 0.518 | 0.565 | 0.627 | 0.149 | 0.395 | 0.47 | 0.429 | 0.15 | 0.177 | 0.22 | 0.191 | 0.19 | – | – | – | –
6 | NCI-H661 | 1.01 | 0.808 | 0.69 | 0.413 | 0.525 | 0.563 | 0.472 | 0.383 | 0.439 | 0.409 | 0.308 | 0.308 | 0.365 | 0.355 | 0.342 | 0.36 | – | – | – | –
7 | UMC-11 | 0.407 | 0.502 | 0.785 | 0.38 | 0.607 | 0.761 | 0.858 | 0.223 | 0.35 | 0.306 | 0.35 | 0.322 | 0.178 | 0.199 | 0.188 | 0.203 | – | – | – | –
8 | NCI-H2023 | 0.494 | 0.472 | 0.647 | 0.244 | 0.55 | 0.459 | 0.628 | 0.434 | 0.384 | 0.436 | 0.49 | 0.227 | 0.363 | 0.337 | 0.483 | 0.178 | – | – | – | –
9 | COR-L 105 | 0.363 | 0.277 | 0.302 | 0.239 | 0.452 | 0.41 | 0.437 | 0.399 | 0.456 | 0.412 | 0.391 | 0.333 | 0.399 | 0.325 | 0.329 | 0.282 | – | – | – | –
10 | NCI-H520 | 0.203 | 0.197 | 0.258 | 0.155 | 0.591 | 0.783 | 0.682 | 0.641 | 0.219 | 0.218 | 0.251 | 0.201 | 0.455 | 0.447 | 0.459 | 0.382 | – | – | – | –
